Laboratory results published in paper PMC8371461 (Frontiers in Pharmacology, 2021).

Columns and labels:
HPK1 = biological target: T1, HPK1 (Homo sapiens, UniProt Q92918); test: kinome scan; type: binding; details: 10 µM
T1 construct: purchased DiscoverX (KINOMEscan)

[1] = biological target: T2, TYK2(JH2domain-pseudokinase) (Homo sapiens, UniProt P29597); test: kinome scan; type: binding
T2 construct: TYK2(JH2domain-pseudokinase); purchased DiscoverX (KINOMEscan)

KIT(A829P) = biological target: T3, KIT(A829P) (Homo sapiens, UniProt P10721, A829P); test: kinome scan; type: binding; details: 10 µM
T3 construct: purchased DiscoverX (KINOMEscan)

SNRK = biological target: T4, SNRK (Homo sapiens, UniProt Q9NRH2); test: kinome scan; type: binding; details: 10 µM
T4 construct: purchased DiscoverX (KINOMEscan)
T4 sequence (Q9NRH2 whole entry): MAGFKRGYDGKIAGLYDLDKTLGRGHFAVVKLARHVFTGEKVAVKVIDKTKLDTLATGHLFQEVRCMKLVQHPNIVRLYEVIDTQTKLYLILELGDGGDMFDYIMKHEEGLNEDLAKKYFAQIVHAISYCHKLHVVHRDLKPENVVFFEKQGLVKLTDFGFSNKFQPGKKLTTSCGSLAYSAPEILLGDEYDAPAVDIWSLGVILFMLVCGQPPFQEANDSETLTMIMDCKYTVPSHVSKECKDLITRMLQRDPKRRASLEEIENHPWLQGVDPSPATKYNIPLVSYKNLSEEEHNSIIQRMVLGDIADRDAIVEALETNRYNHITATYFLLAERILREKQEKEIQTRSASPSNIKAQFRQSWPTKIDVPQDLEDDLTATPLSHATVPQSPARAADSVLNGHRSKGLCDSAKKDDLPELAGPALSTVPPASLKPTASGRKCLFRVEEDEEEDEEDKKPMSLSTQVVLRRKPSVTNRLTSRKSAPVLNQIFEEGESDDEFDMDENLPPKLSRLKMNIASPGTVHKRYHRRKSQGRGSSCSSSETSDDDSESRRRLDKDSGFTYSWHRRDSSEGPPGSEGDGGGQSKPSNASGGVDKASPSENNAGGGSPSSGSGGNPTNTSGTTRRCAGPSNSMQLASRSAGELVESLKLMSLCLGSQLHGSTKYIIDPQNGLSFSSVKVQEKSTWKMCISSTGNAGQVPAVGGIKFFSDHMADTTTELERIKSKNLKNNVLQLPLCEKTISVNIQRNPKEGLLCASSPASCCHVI

BMPR2 = biological target: T5, BMPR2 (Homo sapiens, UniProt Q13873); test: kinome scan; type: binding; details: 10 µM
T5 construct: purchased DiscoverX (KINOMEscan)

LZK = biological target: T6, LZK (Homo sapiens, UniProt O43283); test: kinome scan; type: binding; details: 10 µM
T6 construct: purchased DiscoverX (KINOMEscan)

ERK1 = biological target: T7, ERK1 (Homo sapiens, UniProt P27361); test: kinome scan; type: binding; details: 10 µM
T7 construct: purchased DiscoverX (KINOMEscan)

ROCK1 = biological target: T8, ROCK1 (Homo sapiens, UniProt Q13464); test: kinome scan; type: binding; details: 10 µM
T8 construct: purchased DiscoverX (KINOMEscan)

PIK3CA = biological target: T9, PIK3CA (Homo sapiens, UniProt P42336); test: kinome scan; type: binding; details: 10 µM
T9 construct: purchased DiscoverX (KINOMEscan)

[2] = test system: Pregnane X receptor (PXR) signaling pathway; set-up: method as in CHEMBL3215112; details: reported activity, data mining; ref CHEMBL3215112; cited from earlier work
[3] = biological target: T10, ABL1(Q252H)-phosphorylated (Homo sapiens, UniProt P00519, Q252H); test: kinome scan; type: binding; details: 10 µM
T10 construct: purchased DiscoverX (KINOMEscan)

ACVR2B = biological target: T11, ACVR2B (Homo sapiens, UniProt Q13705); test: kinome scan; type: binding; details: 10 µM
T11 construct: purchased DiscoverX (KINOMEscan)

TYRO3 = biological target: T12, TYRO3 (Homo sapiens, UniProt Q06418); test: kinome scan; type: binding; details: 10 µM
T12 construct: purchased DiscoverX (KINOMEscan)
T12 sequence (Q06418 41-890): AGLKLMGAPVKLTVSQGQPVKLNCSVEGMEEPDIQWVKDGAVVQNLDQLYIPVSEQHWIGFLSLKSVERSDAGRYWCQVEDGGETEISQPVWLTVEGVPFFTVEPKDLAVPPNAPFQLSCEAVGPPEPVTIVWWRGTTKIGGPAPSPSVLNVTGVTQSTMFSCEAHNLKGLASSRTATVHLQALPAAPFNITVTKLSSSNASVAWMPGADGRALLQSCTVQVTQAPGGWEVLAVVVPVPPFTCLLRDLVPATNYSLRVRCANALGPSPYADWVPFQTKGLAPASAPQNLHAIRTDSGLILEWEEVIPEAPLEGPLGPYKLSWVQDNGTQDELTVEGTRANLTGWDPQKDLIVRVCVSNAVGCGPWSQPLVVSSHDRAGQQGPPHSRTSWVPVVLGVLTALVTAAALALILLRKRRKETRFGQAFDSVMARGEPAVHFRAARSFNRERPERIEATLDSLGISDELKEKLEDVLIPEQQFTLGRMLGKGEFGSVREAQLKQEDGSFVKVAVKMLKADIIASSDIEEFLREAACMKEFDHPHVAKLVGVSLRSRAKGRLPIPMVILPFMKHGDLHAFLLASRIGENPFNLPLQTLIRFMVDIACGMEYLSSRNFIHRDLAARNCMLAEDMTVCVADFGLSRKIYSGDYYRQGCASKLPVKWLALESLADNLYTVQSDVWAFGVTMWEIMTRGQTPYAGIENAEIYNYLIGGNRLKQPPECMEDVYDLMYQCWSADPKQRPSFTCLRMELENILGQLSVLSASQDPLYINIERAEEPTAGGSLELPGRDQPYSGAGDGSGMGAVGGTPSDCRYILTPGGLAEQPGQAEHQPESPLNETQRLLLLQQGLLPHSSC

MYLK4 = biological target: T13, MYLK4 (Homo sapiens, UniProt Q86YV6); test: kinome scan; type: binding; details: 10 µM
T13 construct: purchased DiscoverX (KINOMEscan)

MET = biological target: T14, MET (Homo sapiens, UniProt P08581); test: kinome scan; type: binding; details: 10 µM
T14 construct: purchased DiscoverX (KINOMEscan)

NEK5 = biological target: T15, NEK5 (Homo sapiens, UniProt Q6P3R8); test: kinome scan; type: binding; details: 10 µM
T15 construct: purchased DiscoverX (KINOMEscan)

AURKC = biological target: T16, AURKC (Homo sapiens, UniProt Q9UQB9); test: kinome scan; type: binding; details: 10 µM
T16 construct: purchased DiscoverX (KINOMEscan)
T16 sequence (Q9UQB9 whole entry): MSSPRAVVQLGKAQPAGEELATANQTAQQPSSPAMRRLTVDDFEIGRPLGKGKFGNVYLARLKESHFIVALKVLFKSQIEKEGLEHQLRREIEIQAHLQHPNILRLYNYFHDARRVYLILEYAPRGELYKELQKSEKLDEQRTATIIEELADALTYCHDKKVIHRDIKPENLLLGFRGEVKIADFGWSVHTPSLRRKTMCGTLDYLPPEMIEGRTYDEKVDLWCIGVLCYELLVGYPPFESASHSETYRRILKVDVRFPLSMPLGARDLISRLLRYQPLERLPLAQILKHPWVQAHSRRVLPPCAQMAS

PRKCQ = biological target: T17, PRKCQ (Homo sapiens, UniProt Q04759); test: kinome scan; type: binding; details: 10 µM
T17 construct: purchased DiscoverX (KINOMEscan)
T17 sequence (Q04759 whole entry): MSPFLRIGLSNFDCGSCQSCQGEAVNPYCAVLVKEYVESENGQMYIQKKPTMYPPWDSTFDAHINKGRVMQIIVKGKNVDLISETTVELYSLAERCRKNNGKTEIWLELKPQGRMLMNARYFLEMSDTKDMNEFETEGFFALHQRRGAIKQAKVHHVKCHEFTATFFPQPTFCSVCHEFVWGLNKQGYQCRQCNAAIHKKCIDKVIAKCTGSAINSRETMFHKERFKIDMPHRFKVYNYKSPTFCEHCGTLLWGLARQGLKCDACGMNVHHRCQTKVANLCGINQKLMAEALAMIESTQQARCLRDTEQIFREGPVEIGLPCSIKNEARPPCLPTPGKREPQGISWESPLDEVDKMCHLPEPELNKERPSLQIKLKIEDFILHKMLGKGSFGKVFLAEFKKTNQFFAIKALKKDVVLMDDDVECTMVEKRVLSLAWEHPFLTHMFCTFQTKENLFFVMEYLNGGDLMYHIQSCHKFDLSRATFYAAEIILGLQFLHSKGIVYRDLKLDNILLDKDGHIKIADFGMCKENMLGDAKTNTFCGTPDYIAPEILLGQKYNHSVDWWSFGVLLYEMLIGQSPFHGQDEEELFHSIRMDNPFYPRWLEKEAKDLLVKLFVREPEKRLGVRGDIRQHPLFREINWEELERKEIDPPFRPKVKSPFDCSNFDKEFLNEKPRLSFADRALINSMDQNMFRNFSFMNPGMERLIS

TRPM6 = biological target: T18, TRPM6 (Homo sapiens, UniProt Q9BX84); test: kinome scan; type: binding; details: 10 µM
T18 construct: purchased DiscoverX (KINOMEscan)

EPHB1 = biological target: T19, EPHB1 (Homo sapiens, UniProt P54762); test: kinome scan; type: binding; details: 10 µM
T19 construct: purchased DiscoverX (KINOMEscan)

DAPK2 = biological target: T20, DAPK2 (Homo sapiens, UniProt Q9UIK4); test: kinome scan; type: binding; details: 10 µM
T20 construct: purchased DiscoverX (KINOMEscan)

[4] = biological target: T21, RSK3(Kin.Dom.1-N-terminal) (Homo sapiens, UniProt Q15349); test: kinome scan; type: binding; details: 10 µM
T21 construct: RSK3(Kin.Dom.1-N-terminal); purchased DiscoverX (KINOMEscan)

IKK-beta = biological target: T22, IKK-beta (Homo sapiens, UniProt O14920); test: kinome scan; type: binding; details: 10 µM
T22 construct: purchased DiscoverX (KINOMEscan)

DYRK1A = biological target: T23, DYRK1A (Homo sapiens, UniProt Q13627); test: kinome scan; type: binding; details: 10 µM
T23 construct: purchased DiscoverX (KINOMEscan)

PLK3 = biological target: T24, PLK3 (Homo sapiens, UniProt Q9H4B4); test: kinome scan; type: binding; details: 10 µM
T24 construct: purchased DiscoverX (KINOMEscan)
T24 sequence (Q9H4B4 whole entry): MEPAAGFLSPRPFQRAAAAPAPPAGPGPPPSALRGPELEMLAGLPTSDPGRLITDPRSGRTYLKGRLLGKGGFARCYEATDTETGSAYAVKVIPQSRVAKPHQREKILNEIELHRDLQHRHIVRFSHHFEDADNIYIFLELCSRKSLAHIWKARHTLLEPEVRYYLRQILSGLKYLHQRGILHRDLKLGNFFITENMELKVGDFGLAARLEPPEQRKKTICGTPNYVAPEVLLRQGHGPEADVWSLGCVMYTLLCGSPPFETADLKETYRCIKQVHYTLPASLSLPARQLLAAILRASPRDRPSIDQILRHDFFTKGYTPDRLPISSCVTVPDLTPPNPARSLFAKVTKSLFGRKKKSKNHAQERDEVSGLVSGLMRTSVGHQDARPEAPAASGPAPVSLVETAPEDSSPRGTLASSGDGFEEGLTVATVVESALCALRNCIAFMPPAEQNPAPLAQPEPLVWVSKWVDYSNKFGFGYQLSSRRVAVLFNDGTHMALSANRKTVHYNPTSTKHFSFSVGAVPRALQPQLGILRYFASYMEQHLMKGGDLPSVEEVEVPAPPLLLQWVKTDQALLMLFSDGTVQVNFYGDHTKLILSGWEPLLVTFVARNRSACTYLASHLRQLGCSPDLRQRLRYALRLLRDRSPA

CLK2 = biological target: T25, CLK2 (Homo sapiens, UniProt P49760); test: kinome scan; type: binding; details: 10 µM
T25 construct: purchased DiscoverX (KINOMEscan)

CAMK1 = biological target: T26, CAMK1 (Homo sapiens, UniProt Q14012); test: kinome scan; type: binding; details: 10 µM
T26 construct: purchased DiscoverX (KINOMEscan)

[5] = biological target: T27, RSK3(Kin.Dom.2-C-terminal) (Homo sapiens, UniProt Q15349); test: kinome scan; type: binding; details: 10 µM
T27 construct: RSK3(Kin.Dom.2-C-terminal); purchased DiscoverX (KINOMEscan)

CSNK1G2 = biological target: T28, CSNK1G2 (Homo sapiens, UniProt P78368); test: kinome scan; type: binding; details: 10 µM
T28 construct: purchased DiscoverX (KINOMEscan)

DMPK2 = biological target: T29, DMPK2 (Homo sapiens, UniProt Q6DT37); test: kinome scan; type: binding; details: 10 µM
T29 construct: purchased DiscoverX (KINOMEscan)

NLK = biological target: T30, NLK (Homo sapiens, UniProt Q9UBE8); test: kinome scan; type: binding; details: 10 µM
T30 construct: purchased DiscoverX (KINOMEscan)

SYK = biological target: T31, SYK (Homo sapiens, UniProt P43405); test: kinome scan; type: binding; details: 10 µM
T31 construct: purchased DiscoverX (KINOMEscan)

EGFR(E746-A750del) = biological target: T32, EGFR(E746-A750del) (Homo sapiens, UniProt P00533, DEL746-750); test: kinome scan; type: binding; details: 10 µM
T32 construct: purchased DiscoverX (KINOMEscan)
T32 sequence (P00533 with tags, fused parts or gaps DEL746-750 limits assumed): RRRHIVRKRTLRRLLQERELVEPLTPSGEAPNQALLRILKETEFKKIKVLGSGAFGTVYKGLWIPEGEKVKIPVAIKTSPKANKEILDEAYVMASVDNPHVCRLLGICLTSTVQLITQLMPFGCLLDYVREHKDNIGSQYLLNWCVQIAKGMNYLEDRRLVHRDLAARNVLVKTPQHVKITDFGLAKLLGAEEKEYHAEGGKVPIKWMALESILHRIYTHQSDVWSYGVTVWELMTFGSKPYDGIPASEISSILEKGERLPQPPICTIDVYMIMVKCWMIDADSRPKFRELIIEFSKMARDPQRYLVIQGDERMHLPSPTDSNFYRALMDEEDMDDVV

GRK7 = biological target: T33, GRK7 (Homo sapiens, UniProt Q8WTQ7); test: kinome scan; type: binding; details: 10 µM
T33 construct: purchased DiscoverX (KINOMEscan)

T2 sequence (P29597 556-888 limits assumed): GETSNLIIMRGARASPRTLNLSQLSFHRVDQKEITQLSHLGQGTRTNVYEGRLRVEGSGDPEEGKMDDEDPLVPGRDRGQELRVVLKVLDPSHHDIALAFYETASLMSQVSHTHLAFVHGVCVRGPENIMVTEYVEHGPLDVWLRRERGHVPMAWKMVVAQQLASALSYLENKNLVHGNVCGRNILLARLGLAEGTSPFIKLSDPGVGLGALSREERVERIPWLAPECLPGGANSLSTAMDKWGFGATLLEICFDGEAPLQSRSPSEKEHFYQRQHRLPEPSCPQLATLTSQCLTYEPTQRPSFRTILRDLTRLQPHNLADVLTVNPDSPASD
T1 sequence (Q92918 whole entry): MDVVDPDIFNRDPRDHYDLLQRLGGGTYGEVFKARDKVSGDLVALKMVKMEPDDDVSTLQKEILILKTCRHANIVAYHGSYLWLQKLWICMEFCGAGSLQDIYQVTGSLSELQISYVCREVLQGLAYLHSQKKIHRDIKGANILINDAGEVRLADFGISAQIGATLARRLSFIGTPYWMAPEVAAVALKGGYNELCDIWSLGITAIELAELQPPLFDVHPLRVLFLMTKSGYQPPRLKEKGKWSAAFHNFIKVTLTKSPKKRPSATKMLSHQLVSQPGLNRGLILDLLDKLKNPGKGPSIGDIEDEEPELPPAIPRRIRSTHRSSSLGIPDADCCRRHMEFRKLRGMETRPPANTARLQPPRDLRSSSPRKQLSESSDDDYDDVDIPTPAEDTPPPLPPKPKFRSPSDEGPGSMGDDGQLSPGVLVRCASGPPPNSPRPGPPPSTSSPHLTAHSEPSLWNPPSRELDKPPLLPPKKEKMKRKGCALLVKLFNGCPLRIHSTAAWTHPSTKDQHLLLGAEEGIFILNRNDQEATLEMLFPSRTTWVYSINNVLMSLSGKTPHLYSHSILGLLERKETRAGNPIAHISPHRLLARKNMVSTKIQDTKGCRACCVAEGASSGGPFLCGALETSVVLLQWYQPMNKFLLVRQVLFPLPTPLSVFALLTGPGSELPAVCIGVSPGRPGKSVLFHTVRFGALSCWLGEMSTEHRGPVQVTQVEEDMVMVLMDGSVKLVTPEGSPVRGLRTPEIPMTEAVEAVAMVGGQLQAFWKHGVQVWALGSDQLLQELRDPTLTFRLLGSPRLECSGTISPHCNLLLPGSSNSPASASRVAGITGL

**Q.** With `Nc1ccc(N=Nc2ccccc2)c(N)n1` [phenazopyridine, 2,6-diamino-3-(phenylazo)pyridine] as the compound, how does the kinase inhibition (HPK1) read?
**A.** The kinase inhibition was 67.

**Q.** And the “remaining binding (% of control)” value ([1]; TYK2(JH2domain-pseudokinase), 10 µM)?
**A.** The value was 16.

**Q.** And the remaining binding at 10 µM ([1]; TYK2 as printed (Table S4: JH2domain-pseudokinase), read-out: % Of control)?
**A.** Its remaining binding at 10 µM is 16%.

**Q.** What about the kinase inhibition (KIT(A829P)) of the same compound?
**A.** The kinase inhibition was 95.

**Q.** And the kinase inhibition (SNRK)?
**A.** Its kinase inhibition is 100.

**Q.** And the kinase inhibition (BMPR2)?
**A.** Its kinase inhibition is 97.

**Q.** What about the kinase inhibition (LZK) of the same compound?
**A.** The kinase inhibition was 100.

**Q.** And the kinase inhibition (ERK1)?
**A.** The kinase inhibition was 95.

**Q.** What about the kinase inhibition (ROCK1) of the same compound?
**A.** Its kinase inhibition is 78.

**Q.** And the kinase inhibition (PIK3CA)?
**A.** Its kinase inhibition is 84.

**Q.** And the Concentration [2]?
**A.** Its Concentration is 7.9 µM.

**Q.** What about the kinase inhibition [3] of the same compound?
**A.** Its kinase inhibition is 100.

**Q.** What about the kinase inhibition (ACVR2B) of the same compound?
**A.** Its kinase inhibition is 84.

**Q.** What about the kinase inhibition (TYRO3) of the same compound?
**A.** Its kinase inhibition is 94.

**Q.** What about the kinase inhibition (MYLK4) of the same compound?
**A.** The kinase inhibition was 87.

**Q.** And the kinase inhibition (MET)?
**A.** The kinase inhibition was 100.

**Q.** And the kinase inhibition (NEK5)?
**A.** The kinase inhibition was 100.

**Q.** What about the kinase inhibition (AURKC) of the same compound?
**A.** Its kinase inhibition is 68.

**Q.** And the kinase inhibition (PRKCQ)?
**A.** The kinase inhibition was 81.

**Q.** And the kinase inhibition (TRPM6)?
**A.** The kinase inhibition was 100.

**Q.** And the kinase inhibition (EPHB1)?
**A.** The kinase inhibition was 100.

**Q.** And the kinase inhibition (DAPK2)?
**A.** Its kinase inhibition is 100.

**Q.** What about the kinase inhibition [4] of the same compound?
**A.** The kinase inhibition was 100.

**Q.** And the kinase inhibition (IKK-beta)?
**A.** The kinase inhibition was 89.

**Q.** What about the “remaining binding (% of control)” value (DYRK1A) of the same compound?
**A.** The value was 73.

**Q.** What about the “remaining binding (% of control)” value (PLK3) of the same compound?
**A.** Its value is 98.

**Q.** And the kinase inhibition (CLK2)?
**A.** The kinase inhibition was 75.

**Q.** And the kinase inhibition (CAMK1)?
**A.** The kinase inhibition was 100.

**Q.** What about the kinase inhibition [5] of the same compound?
**A.** Its kinase inhibition is 100.

**Q.** What about the kinase inhibition (CSNK1G2) of the same compound?
**A.** The kinase inhibition was 82.

**Q.** And the kinase inhibition (DMPK2)?
**A.** Its kinase inhibition is 100.

**Q.** What about the kinase inhibition (NLK) of the same compound?
**A.** Its kinase inhibition is 88.

**Q.** What about the kinase inhibition (SYK) of the same compound?
**A.** Its kinase inhibition is 100.

**Q.** What about the “remaining binding (% of control)” value (EGFR(E746-A750del)) of the same compound?
**A.** Its value is 69.

**Q.** What about the kinase inhibition (GRK7) of the same compound?
**A.** Its kinase inhibition is 100.
